# Test results reported in ChEMBL document CHEMBL1275577, “Study of the in vitro activities of rifaximin and comparator agents against 536 anaerobic intestinal bacteria from the perspective of potential utility in pathology involving bowel flora” (Antimicrob Agents Chemother, 2009).
# How the values were obtained:
# Holdemania filiformis = assay: Antimicrobial activity against Holdemania filiformis by Wadsworth agar dilution method; assay type: functional
# Propionibacterium avidum = assay: Antimicrobial activity against Propionibacterium avidum by Wadsworth agar dilution method; assay type: functional; conditions: Cutibacterium avidum
# Clostridium cadaveris = assay: Antimicrobial activity against Clostridium cadaveris by Wadsworth agar dilution method; assay type: functional
# Anaerococcus tetradius = assay: Antimicrobial activity against Anaerococcus tetradius by Wadsworth agar dilution method; assay type: functional
# Eubacterium rectale = assay: Antimicrobial activity against Eubacterium rectale by Wadsworth agar dilution method; assay type: functional; conditions: Agathobacter rectalis
# Prevotella bivia = assay: Antimicrobial activity against Prevotella bivia by Wadsworth agar dilution method; assay type: functional
# [1] = Antimicrobial activity against Bifidobacterium infantis by Wadsworth agar dilution method; assay type: functional, Bifidobacterium longum subsp. infantis; conditions: Bifidobacterium longum
# Hoylesella loescheii = assay: Antimicrobial activity against Prevotella loescheii by Wadsworth agar dilution method; assay type: functional
# Fusobacterium mortiferum = assay: Antimicrobial activity against Clostridium rectum by Wadsworth agar dilution method; assay type: functional
# Bacteroides stercoris = assay: Antimicrobial activity against Bacteroides stercoris by Wadsworth agar dilution method; assay type: functional
# Eubacterium saburreum = assay: Antimicrobial activity against Eubacterium saburreum by Wadsworth agar dilution method; assay type: functional; conditions: Lachnoanaerobaculum saburreum
# Ruminococcus obeum = assay: Antimicrobial activity against Ruminococcus obeum by Wadsworth agar dilution method; assay type: functional; conditions: Blautia obeum
# Clostridium spiroforme = assay: Antimicrobial activity against Clostridium spiroforme by Wadsworth agar dilution method; assay type: functional; conditions: Thomasclavelia spiroformis
# Cutibacterium acnes = assay: Antimicrobial activity against Propionibacterium acnes by Wadsworth agar dilution method; assay type: functional
# Eubacterium cylindroides = assay: Antimicrobial activity against Eubacterium cylindroides by Wadsworth agar dilution method; assay type: functional; conditions: Faecalitalea cylindroides
# [2] = test system: Pseudoramibacter alactolyticus; assay: Antimicrobial activity against Eubacterium alactolyticum by Wadsworth agar dilution method; assay type: functional
# [3] = test system: Bifidobacterium pseudolongum; assay: Antimicrobial activity against Bifidobacterium pseudolongum by Wadsworth agar dilution method; assay type: functional
# Parabacteroides merdae = assay: Antimicrobial activity against Parabacteroides merdae by Wadsworth agar dilution method; assay type: functional
# [4] = test system: Bacteroides thetaiotaomicron; assay: Antimicrobial activity against Bacteroides thetaiotaomicron by Wadsworth agar dilution method; assay type: functional
# Clostridium septicum = assay: Antimicrobial activity against Clostridium septicum by Wadsworth agar dilution method; assay type: functional
# [5] = test system: Lactiplantibacillus plantarum; assay: Antimicrobial activity against Lactobacillus plantarum by Wadsworth agar dilution method; assay type: functional
# [6] = test system: Prevotella melaninogenica; assay: Antimicrobial activity against Prevotella melaninogenica by Wadsworth agar dilution method; assay type: functional
# [7] = test system: Bifidobacterium adolescentis; assay: Antimicrobial activity against Bifidobacterium adolescentis by Wadsworth agar dilution method; assay type: functional
# Bifidobacterium longum = assay: Antimicrobial activity against Bifidobacterium longum by Wadsworth agar dilution method; assay type: functional
# Clostridium cocleatum = assay: Antimicrobial activity against Clostridium cocleatum by Wadsworth agar dilution method; assay type: functional; conditions: Thomasclavelia cocleata
# Lactobacillus jensenii = assay: Antimicrobial activity against Lactobacillus jensenii by Wadsworth agar dilution method; assay type: functional
# Clostridium tertium = assay: Antimicrobial activity against Clostridium tertium by Wadsworth agar dilution method; assay type: functional
# Porphyromonas somerae = assay: Antimicrobial activity against Porphyromonas somerae by Wadsworth agar dilution method; assay type: functional
# [8] = test system: Limosilactobacillus fermentum; assay: Antimicrobial activity against Lactobacillus fermentum by Wadsworth agar dilution method; assay type: functional
# Bacteroides ovatus = assay: Antimicrobial activity against Bacteroides ovatus by Wadsworth agar dilution method; assay type: functional
# Eggerthella lenta = assay: Antimicrobial activity against Eggerthella lenta by Wadsworth agar dilution method; assay type: functional
# Eubacterium biforme = assay: Antimicrobial activity against Eubacterium biforme by Wadsworth agar dilution method; assay type: functional; conditions: Holdemanella biformis
# Tissierella praeacuta = assay: Antimicrobial activity against Clostridium hastiforme by Wadsworth agar dilution method; assay type: functional
# [9] = test system: Paraclostridium bifermentans; assay: Antimicrobial activity against Clostridium bifermentans by Wadsworth agar dilution method; assay type: functional
# Ruminococcus torques = assay: Antimicrobial activity against Ruminococcus torques by Wadsworth agar dilution method; assay type: functional; conditions: Mediterraneibacter torques
# [10] = test system: Ruminococcus flavefaciens; assay: Antimicrobial activity against Ruminococcus flavefaciens by Wadsworth agar dilution method; assay type: functional
# Clostridium beijerinckii = assay: Antimicrobial activity against Clostridium beijerinckii by Wadsworth agar dilution method; assay type: functional
# Actinomyces viscosus = assay: Antimicrobial activity against Actinomyces viscosus by Wadsworth agar dilution method; assay type: functional
# [11] = test system: Paeniclostridium sordellii; assay: Antimicrobial activity against Clostridium sordellii by Wadsworth agar dilution method; assay type: functional; conditions: Paraclostridium sordellii
# Atopobium minutum = assay: Antimicrobial activity against Atopobium minutum by Wadsworth agar dilution method; assay type: functional
# [12] = test system: Catenibacterium mitsuokai; assay: Antimicrobial activity against Catenibacterium mitsuokai by Wadsworth agar dilution method; assay type: functional
# Clostridium leptum = assay: Antimicrobial activity against Clostridium leptum by Wadsworth agar dilution method; assay type: functional
# [13] = test system: Peptostreptococcus anaerobius; assay: Antimicrobial activity against Peptostreptococcus anaerobius by Wadsworth agar dilution method; assay type: functional
# Clostridium sp. = assay: Antimicrobial activity against Clostridium sp. by Wadsworth agar dilution method; assay type: functional
# Bacteroides nordii = assay: Antimicrobial activity against Bacteroides nordii by Wadsworth agar dilution method; assay type: functional
# Thomasclavelia ramosa = assay: Antimicrobial activity against Clostridium ramosum by Wadsworth agar dilution method; assay type: functional
# [14] = test system: Enterocloster clostridioformis; assay: Antimicrobial activity against Clostridium clostridioforme by Wadsworth agar dilution method; assay type: functional
# Desulfovibrio vulgaris = assay: Antimicrobial activity against Desulfovibrio vulgaris by Wadsworth agar dilution method; assay type: functional; conditions: Nitratidesulfovibrio vulgaris
smiles,measurement,setting,value
CO[C@H]1/C=C/O[C@@]2(C)Oc3c(C)c(O)c4c(O)c(c5c(nc6cc(C)ccn65)c4c3C2=O)NC(=O)/C(C)=C\C=C\[C@H](C)[C@H](O)[C@@H](C)[C@@H](O)[C@@H](C)[C@H](OC(C)=O)[C@@H]1C [RIFAXIMIN],MIC50,Holdemania filiformis,0.5 mg/L
same,MIC90,Holdemania filiformis,> 1020 mg/L
same,MIC50,Propionibacterium avidum,0.5 mg/L
same,MIC90,Propionibacterium avidum,> 1020 mg/L
same,MIC,Clostridium cadaveris,0.25 mg/L
same,MIC50,Clostridium cadaveris,0.25 mg/L
same,MIC90,Clostridium cadaveris,> 1020 mg/L
same,MIC,Anaerococcus tetradius,0.25 mg/L
same,MIC50,Anaerococcus tetradius,0.25 mg/L
same,MIC90,Anaerococcus tetradius,4 mg/L
same,MIC50,Eubacterium rectale,0.5 mg/L
same,MIC90,Eubacterium rectale,> 1020 mg/L
same,MIC,Prevotella bivia,0.25 mg/L
same,MIC50,Prevotella bivia,0.25 mg/L
same,MIC90,Prevotella bivia,0.5 mg/L
same,MIC50,[1],0.5 mg/L
same,MIC90,[1],> 1020 mg/L
same,MIC,Hoylesella loescheii,0.25 mg/L
same,MIC50,Hoylesella loescheii,0.25 mg/L
same,MIC90,Hoylesella loescheii,0.5 mg/L
same,MIC,Fusobacterium mortiferum,0.25 mg/L
same,MIC50,Fusobacterium mortiferum,0.25 mg/L
same,MIC90,Fusobacterium mortiferum,> 1020 mg/L
same,MIC,Bacteroides stercoris,0.25 mg/L
same,MIC50,Bacteroides stercoris,0.25 mg/L
same,MIC90,Bacteroides stercoris,0.5 mg/L
same,MIC50,Eubacterium saburreum,0.5 mg/L
same,MIC90,Eubacterium saburreum,> 1020 mg/L
same,MIC,Ruminococcus obeum,0.25 mg/L
same,MIC50,Ruminococcus obeum,0.25 mg/L
same,MIC90,Ruminococcus obeum,4 mg/L
same,MIC,Clostridium spiroforme,0.25 mg/L
same,MIC50,Clostridium spiroforme,0.25 mg/L
same,MIC90,Clostridium spiroforme,> 1020 mg/L
same,MIC50,Cutibacterium acnes,0.5 mg/L
same,MIC90,Cutibacterium acnes,> 1020 mg/L
same,MIC50,Eubacterium cylindroides,0.5 mg/L
same,MIC90,Eubacterium cylindroides,> 1020 mg/L
same,MIC50,[2],0.5 mg/L
same,MIC90,[2],> 1020 mg/L
same,MIC50,[3],0.5 mg/L
same,MIC90,[3],> 1020 mg/L
same,MIC,Parabacteroides merdae,0.25 mg/L
same,MIC50,Parabacteroides merdae,0.25 mg/L
same,MIC90,Parabacteroides merdae,1 mg/L
same,MIC50,[4],1 mg/L
same,MIC90,[4],> 1020 mg/L
same,MIC,Clostridium septicum,0.25 mg/L
same,MIC50,Clostridium septicum,0.25 mg/L
same,MIC90,Clostridium septicum,> 1020 mg/L
same,MIC50,[5],0.5 mg/L
same,MIC90,[5],> 1020 mg/L
same,MIC,[6],0.25 mg/L
same,MIC50,[6],0.25 mg/L
same,MIC90,[6],0.5 mg/L
same,MIC50,[7],0.5 mg/L
same,MIC90,[7],> 1020 mg/L
same,MIC50,Bifidobacterium longum,0.5 mg/L
same,MIC90,Bifidobacterium longum,> 1020 mg/L
same,MIC,Clostridium cocleatum,0.25 mg/L
same,MIC50,Clostridium cocleatum,0.25 mg/L
same,MIC90,Clostridium cocleatum,> 1020 mg/L
same,MIC50,Lactobacillus jensenii,0.5 mg/L
same,MIC90,Lactobacillus jensenii,> 1020 mg/L
same,MIC,Clostridium tertium,0.25 mg/L
same,MIC50,Clostridium tertium,0.25 mg/L
same,MIC90,Clostridium tertium,> 1020 mg/L
same,MIC,Porphyromonas somerae,0.25 mg/L
same,MIC50,Porphyromonas somerae,0.25 mg/L
same,MIC90,Porphyromonas somerae,0.5 mg/L
same,MIC50,[8],0.5 mg/L
same,MIC90,[8],> 1020 mg/L
same,MIC50,Bacteroides ovatus,1 mg/L
same,MIC90,Bacteroides ovatus,1 mg/L
same,MIC50,Eggerthella lenta,0.5 mg/L
same,MIC90,Eggerthella lenta,> 1020 mg/L
same,MIC50,Eubacterium biforme,0.5 mg/L
same,MIC90,Eubacterium biforme,> 1020 mg/L
same,MIC,Tissierella praeacuta,0.25 mg/L
same,MIC50,Tissierella praeacuta,0.25 mg/L
same,MIC90,Tissierella praeacuta,> 1020 mg/L
same,MIC,[9],0.25 mg/L
same,MIC50,[9],0.25 mg/L
same,MIC90,[9],> 1020 mg/L
same,MIC,Ruminococcus torques,0.25 mg/L
same,MIC50,Ruminococcus torques,0.25 mg/L
same,MIC90,Ruminococcus torques,4 mg/L
same,MIC,[10],0.25 mg/L
same,MIC50,[10],0.25 mg/L
same,MIC90,[10],4 mg/L
same,MIC,Clostridium beijerinckii,0.25 mg/L
same,MIC50,Clostridium beijerinckii,0.25 mg/L
same,MIC90,Clostridium beijerinckii,> 1020 mg/L
same,MIC50,Actinomyces viscosus,0.5 mg/L
same,MIC90,Actinomyces viscosus,> 1020 mg/L
same,MIC,[11],0.25 mg/L
same,MIC50,[11],0.25 mg/L
same,MIC90,[11],> 1020 mg/L
same,MIC50,Atopobium minutum,0.5 mg/L
same,MIC90,Atopobium minutum,> 1020 mg/L
same,MIC50,[12],0.5 mg/L
same,MIC90,[12],> 1020 mg/L
same,MIC,Clostridium leptum,0.25 mg/L
same,MIC50,Clostridium leptum,0.25 mg/L
same,MIC90,Clostridium leptum,> 1020 mg/L
same,MIC,[13],0.25 mg/L
same,MIC50,[13],0.25 mg/L
same,MIC90,[13],4 mg/L
same,MIC,Clostridium sp.,0.25 mg/L
same,MIC50,Clostridium sp.,0.25 mg/L
same,MIC90,Clostridium sp.,> 1020 mg/L
same,MIC,Bacteroides nordii,0.25 mg/L
same,MIC50,Bacteroides nordii,0.25 mg/L
same,MIC90,Bacteroides nordii,0.5 mg/L
same,MIC,Thomasclavelia ramosa,0.25 mg/L
same,MIC50,Thomasclavelia ramosa,0.25 mg/L
same,MIC90,Thomasclavelia ramosa,> 1020 mg/L
same,MIC50,[14],0.25 mg/L
same,MIC90,[14],0.25 mg/L
same,MIC50,Desulfovibrio vulgaris,16 mg/L
same,MIC90,Desulfovibrio vulgaris,332 mg/L
